The source of these data is patent US5213788A, “Physically and chemically stabilized polyatomic clusters for magnetic resonance image and spectral enhancement” (priority 1991, dated 1993).

The test system of one series is red cells. The conditions noted are these: cited from earlier work.
Another series concerns VX2 carcinomas. Nature of the series: Histochemical platinum stain of tumor tissues after intraarterial perfusion. Type of series: in vivo, rabbit. The conditions noted are these: selective arterial perfusion. The method, then:
At 5 to 15 minutes postinjection, the animals were sacrificed, their lungs removed and fixed with intratracheal buffered formalin, tissue sections cut at 8 microns thickness, and the sections stained using a newly devised method for platinum which comprises a microwave-augmented iron-type stain (60° C.×2 minute×3 cycles) using a 1:1 mixture of 2% ferriferrocyanide reagent and 4% HCl. […] To those skilled in the art, additional evidence for selective lung localization, was obtained by injecting intravenously, analogous (subembolizing) heparincoated small microparticles containing encapsulated amphotericin B, into identical mice, homogenizing the lungs, and documenting an 8-fold increment in drug levels over native amphotericin B (deoxycholate formulation, Fungizone; Squibb) recovered at 1 to 3 hours postinjection.
(§1) Additional documentation for maintenance of the cisplatin-carrier paired-ion complex in vivo was obtained as follows. […] Animals were sacrificed at 15 minutes, and the tumors and organs were homogenized extracted and analyzed by atomic absorption for tissue platinum concentrations, as shown in Table 1.
Additionally, histochemical platinum stains were performed on the tumor tissues, as described in Example 7.
Microinhomogeneities of tissue heating represent a major problem in hyperthermia treatment of tumors. […]

The test system of another series is CBA/J mice. The series is described as follows: Tetany / toxicity following intravenous injection. The series is classed as in vivo. The conditions noted are these: 10 mg/25 gm body weight.
The test system of series [1] is VX2 carcinomas of the right hind limb. Nature of the series: Tissue platinum content by atomic absorption after selective intraarterial perfusion. The series is classed as in vivo. The conditions noted are these: 15 mg cisplatin per rabbit intraarterially over 15 minutes. How it is done: as §1
Series [2] in a line: Complexation of exogenously added calcium ions (ionized calcium analyzer). Type of series: binding.
The test system of another series is tumor interstitium. The conditions noted are these: in vivo; cited from earlier work.
The test system of series [3] is BRO-strain human malignant melanomas. The series is described as follows: MR imaging of human malignant melanoma xenografts. The series is classed as in vivo, human tumor in Swiss nude mice. The method, then: The strong paramagnetic metal ion, gadolinium (Gd^+3), was chelated stoichiometrically to DTPA-Dextran 70 polymer, whose preparation is described in Example 1, paragraph 2 (improved formulation). Swiss nude mice were inoculated with BRO-strain human malignant melanomas, and these were allowed to grow to a 1-1.5 cm diameter. Moderately T1-weighted MR imaging (TR=500 msec, TE=40 msec) was performed in a standard Diasonics™ medical imager and a 30-cm RF head coil, before and after intravenous injection of equivalent doses of Gd-DTPA-Dextran-70 (0.03 mmol Gd/kg) or Gd-DTPA (0.1 mmol/kg) contrast agent. […] It will also be recognized that much lower doses of the stronger superparamagnetics (including doses below about 0.01 mmol/kg, versus 0.1 mmol/kg for Gd-DTPA) can be used to obtain effective MRI contrast enhancement; and that much faster, more heavily T1-weighted pulse sequences can be implemented in the presence of intramolecularly superparamagnetic polyatomic complex-carrier polymer conjugates or paired-ion complexes.
In general terms: Xenograft models place foreign cells or tissue in a host animal.

For series [4] the following is noted: small-molecular contrast agents; cited from earlier work.
Series [5] is described as follows: Blood and total body clearance. The series is classed as in vivo.
For series [6] the following is noted: usually; cited from earlier work.
Another series deals with malignant breast tumor. The conditions noted are these: by 30 minutes postcontrast; cited from earlier work.

For the molecule `[O]=[51Cr](=[O])([O-])[O-]` [^51 Chromium, ^51 CrO4^-2], the “Average rate of elution from red cells” value in the series on red cells is 0.93 % per day.

In the case of `N.N.[Cl][Pt][Cl]` [cisplatin, cis-dichlorodiamine platinum], the “Intracellular tumor-cell platinum staining” value with VX2 carcinomas is “aggregated staining was absent”.

Take “Cisplatin-DTPA-Dextran (70,000 MW) [DTPA-dextran cisplatin]”: the “Tetany / toxicity following intravenous injection” value in the series on CBA/J mice was “elimination of tetany”. For the same molecule, in [1], the “Platinum content, Kidney” value is recorded as 2.92 ng/mg of tissue, wet weight and the “Platinum content, Liver” value is reported as 3.47 ng/mg of tissue, wet weight. In addition, in series [1] (Ipsilateral), the “Platinum content, Blood” value is 2.14 ng/mg of tissue, wet weight; the “Platinum content, Muscle” value is 0.29 ng/mg of tissue, wet weight; the “Platinum content, Tumor” value was 10.81 ng/mg of tissue, wet weight. In addition, in series [2], the “Complexation of exogenously added calcium ions by the DTPA groups” value is recorded as “reduction in the complexation of exogenously added calcium ions”.

Regarding “gadolinium diethylenetriamine pentaacetic acid [Gd-DTPA]”, the “Retention in tumor interstitium” value in the series with tumor interstitium was 10 to 45 min. Besides, in series [3] (by one hour, 0.1 mmol/kg), the “Fading of tumor enhancement” value is “completely faded”. In addition, the “Time to begin to optimally enhance the tumors” value in [3] (intravenous, Gd-DTPA-dextran 0.03 mmol Gd/kg, Gd-DTPA 0.1 mmol/kg) turned out to be 10 min. For the same molecule, in series [4], the “Initial biodistribution, share of total body water” value is given as “ca. 35%”. The “Blood clearance t1/2” value in series [5] was 20 min. Moreover, the Retained fraction result in series [6] was “less than 0.5%”.

As to “gadolinium diethylenetriamine pentaacetic acid dimeglumine [Gd-DTPA dimeglumine]”, in the series with malignant breast tumor, the “Tumor fading, in words” value is given as “almost complete fading (tumor clearance)”.
